The results in this text go back to US20250320206A1, “STAT6 DEGRADERS” (Gilead Sciences, Inc., priority 2024, published 2025).

The target in one test is T1, STAT6 (Homo sapiens, UniProt P42226).
T1 construct: These cells express endogenous STAT6; host or cells: HeLa LgBiT clone 4.14
T1 sequence (P42226 1-847): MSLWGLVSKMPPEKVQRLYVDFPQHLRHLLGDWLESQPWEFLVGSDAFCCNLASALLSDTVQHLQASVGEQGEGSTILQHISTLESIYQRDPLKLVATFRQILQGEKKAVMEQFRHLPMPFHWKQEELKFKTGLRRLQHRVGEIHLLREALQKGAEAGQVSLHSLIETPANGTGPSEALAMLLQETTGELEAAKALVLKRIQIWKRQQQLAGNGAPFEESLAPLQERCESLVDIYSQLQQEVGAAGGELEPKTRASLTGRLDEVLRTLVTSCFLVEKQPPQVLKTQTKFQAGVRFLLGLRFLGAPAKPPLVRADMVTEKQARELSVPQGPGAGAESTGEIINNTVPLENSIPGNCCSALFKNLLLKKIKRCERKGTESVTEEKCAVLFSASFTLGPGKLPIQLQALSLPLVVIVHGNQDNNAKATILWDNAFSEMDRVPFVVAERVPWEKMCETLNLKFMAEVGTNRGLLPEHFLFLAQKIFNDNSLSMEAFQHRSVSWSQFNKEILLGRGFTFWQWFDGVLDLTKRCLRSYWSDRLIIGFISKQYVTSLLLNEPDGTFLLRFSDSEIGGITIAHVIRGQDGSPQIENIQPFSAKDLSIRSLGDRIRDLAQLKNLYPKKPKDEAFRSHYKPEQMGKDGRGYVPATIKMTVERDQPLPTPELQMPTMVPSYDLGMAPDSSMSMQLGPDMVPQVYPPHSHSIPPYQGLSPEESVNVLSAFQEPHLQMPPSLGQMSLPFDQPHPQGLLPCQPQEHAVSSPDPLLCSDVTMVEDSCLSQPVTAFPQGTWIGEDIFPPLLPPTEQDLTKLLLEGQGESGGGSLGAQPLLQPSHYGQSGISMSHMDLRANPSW
The experiment in a line: Stat6 Degrader Assay (HiBiT based, HeLa LgBiT clone 4.14). It counts as cell-based. The note with it: HeLa LgBiT clone 4.14 HiBiT-STAT6, 4-24 h incubation; read-out: STAT6 degradation Emax. Here is the method: This was a HiBit based assay. A HeLa cell line stably transfected with a small protein, LgBit (Large Bit) was obtained from Promega. These cells express endogenous STAT6. A small 11 amino acid gene sequence (HiBiT) was inserted in the STAT6 gene using CRISPR technology. Once STAT6 protein is expressed in the cells, the HiBiT sequence will bind the LgBit in the cells resulting in a functional NanoBiT protein, giving a luminescent tag to STAT6, see FIG. 2.
Single cell clones were prepared and the clone 4.14 was selected for the assay based on that clone showing high luminescence, high STAT6 phosphorylation upon stimulation with IL-4, and inhibition of luminescence when cells were treated with STAT6 siRNA.
HeLa LgBiT clone 4.14 cells were suspended in DMEM with 10% FCS, 1% Pen/Strep, Na-pyrovate and Hygromycin B, at a concentration of 1.25*105 cells pr mL. 5000 cells were added pr well of a 384 well plate and 20 nL of compound was added by Echo® liquid handler. NN6394A (terfenadine, a toxic compound) was added to control wells at 50 μM concentration to establish the assay window. In these wells the cells are dead which equals 100% degradation of STAT6.
After 4-24 h of incubation at 37° C. under 5% CO2/95% air, 5 μL substrate (Nano-GLO®) was added to the wells and the plates were centrifuged and incubated for 0.5 h.
The luminescence in the wells as a measure of non-degraded STAT6 was measured in a plate reader (BMG Pherastar FSX).
The dose-response curves for Examples 3u208, 3u246, 3u118, 3u119, 3u120, and 3u74 are shown in FIG. 1 (where percent degradation is plotted vs. test compound concentration in M on a log-scale).
Regarding `CNc1nc(=O)n(-c2ccnc3c2cc(CN2CCC(c4c(F)cc(C(=O)N5CCC(CN6CCN(c7cc8c(cc7F)n(C7CCC(=O)NC7=O)c(=O)n8C)CC6)CC5)cc4F)CC2)n3C)cc1F` (stereo not drawn) [Example 3u261, 3-(5-(4-((1-(3,5-difluoro-4-(1-((4-(5-fluoro-4-(methylamino)-2-oxopyrimidin-1 (2H)-yl)-1-methyl-1H-pyrrolo[2,3-b]pyridin-2-yl)methyl)piperidin-4-yl)benzoyl)piperidin-4-yl)methyl)piperazin-1-yl)-6-fluoro-3-methyl-2-oxo-2,3-dihydro-1H-benzo[d]imidazol-1-yl)piperidine-2,6-dione], the Emax was under 20%.
On the same count and under the same terms, then `CNc1ccn(-c2ccnc3c2cc(CN2CCC(c4c(F)cc(C(=O)N5CCC(CN6CCN(c7ccc8c(c7)C7(CC7)C(=O)N8[C@H]7CCC(=O)NC7=O)CC6)CC5)cc4F)CC2)n3C)c(=O)c1` (single isomer, unassigned) [Example 3u151], with 30 to 40%.

Still in this test, the particulars now being: HeLa LgBiT clone 4.14 HiBiT-STAT6, 4-24 h incubation; values given for compounds with >80% Emax; geometric mean; read-out: STAT6 degradation DC50.
For the compound `Cc1cc(C(=O)N2CCC(CN3CCN(Cc4ccc5c(c4)n(C4CC4)c(=O)n5[C@@H]4CCC(=O)NC4=O)C[C@@H]3C)CC2)cc(F)c1C1=CCN([C@@H](C)c2cc3c(-n4ccc5c(c4=O)CCN5)ccnc3n2C)CC1` (single isomer, unassigned) [Example 3u144], the DC50 turned out to be 0.4 nM.
Same read-out and setting: for `CNc1ccn(-c2ccnc3c2cc([C@H](C)N2CC=C(c4c(C)cc(C(=O)N5CCn6nc(CC7CCN(c8ccc9c(c8)n(C8CC8)c(=O)n9C8CCC(=O)NC8=O)CC7)cc6C5)cc4F)CC2)n3C)c(=O)c1` (stereo partly drawn) [Example 3u259, 3-(3-cyclopropyl-5-(4-((5-(3-fluoro-5-methyl-4-(1-((S)-1-(1-methyl-4-(4-(methylamino)-2-oxopyridin-1 (2H)-yl)-1H-pyrrolo[2,3-b]pyridin-2-yl)ethyl)-1,2,3,6-tetrahydropyridin-4-yl)benzoyl)-4,5,6,7-tetrahydropyrazolo[1,5-a]pyrazin-2-yl)methyl)piperidin-1-yl)-2-oxo-2,3-dihydro-1H-benzo[d]imidazol-1-yl)piperidine-2,6-dione] the value was 0.5 nM; for `CNc1ccn(-c2ccnc3c2cc(CN2CCC(c4c(C)cc(C(=O)N5CCC(CN6CCN(Cc7ccc8c(c7)n(C)c(=O)n8C7CCC(=O)NC7=O)CC6)CC5)cc4F)CC2)n3C)c(=O)c1` (stereo not drawn) [Example 3u158, 3-(5-((4-((1-(3-fluoro-5-methyl-4-(1-((1-methyl-4-(4-(methylamino)-2-oxopyridin-1 (2H)-yl)-1H-pyrrolo[2,3-b]pyridin-2-yl)methyl)piperidin-4-yl)benzoyl)piperidin-4-yl)methyl)-piperazin-1-yl)methyl)-3-methyl-2-oxo-2,3-dihydro-1H-benzo[d]imidazol-1-yl)piperidine-2,6-dione], 24.1 nM.
Still for that read-out and setting: for `CNc1ccn(-c2ccnc3c2cc([C@H](C)N2CC=C(c4c(C)cc(C(=O)N5CCC(CN6CCN(Cc7ccc8c(c7)n(C)c(=O)n8[C@@H]7CCC(=O)NC7=O)C[C@@H]6C)CC5)cc4F)CC2)n3C)c(=O)c1` (single isomer, unassigned) [Example 3u34] the value was 0.3 nM; for `CNc1ccn(-c2ccnc3c2cc(CN2CC=C(c4c(F)cc(C(=O)N5CCC(CN6CCN(Cc7ccc8c(c7)n(C)c(=O)n8[C@H]7CCC(=O)NC7=O)C[C@@H]6C)CC5)cc4F)CC2)n3C)c(=O)c1` (single isomer, unassigned) [Example 3u2], 4.3 nM; for `CNc1ccn(-c2ccnc3c2cc(CN2CC=C(c4c(C)cc(C(=O)N5CCC(CN6CCN(Cc7ccc8c(c7)n(C)c(=O)n8C7CCC(=O)NC7=O)CC6)CC5)cc4F)CC2)n3C)c(=O)c1` (stereo not drawn) [Example 3u163, 3-(5-((4-((1-(3-fluoro-5-methyl-4-(1-((1-methyl-4-(4-(methylamino)-2-oxopyridin-1 (2H)-yl)-1H-pyrrolo[2,3-b]pyridin-2-yl)methyl)-1,2,3,6-tetrahydropyridin-4-yl)benzoyl)piperidin-4-yl)methyl)piperazin-1-yl)methyl)-3-methyl-2-oxo-2,3-dihydro-1H-benzo[d]imidazol-1-yl)piperidine-2,6-dione], 4.4 nM.
Still for that read-out and setting: for `Cc1cc(C(=O)N2CCC(CN3CCN(Cc4cc5c(cc4F)n([C@H]4CCC(=O)NC4=O)c(=O)n5C4CC4)C[C@@H]3C)CC2)cc(F)c1C1=CCN([C@@H](C)c2cc3c(-n4ccc5c(c4=O)CCN5)ccnc3n2C)CC1` (single isomer, unassigned) [Example 3u132] the value was 0.5 nM.
Take `CNc1ccn(-c2ccnc3c2cc([C@H](C)N2CC=C(c4c(C)cc(C(=O)N5CCC(CN6CCN(Cc7cc8c(cc7F)n([C@H]7CCC(=O)NC7=O)c(=O)n8C7CC7)CC6)CC5)cc4F)CC2)n3C)c(=O)c1` (single isomer, unassigned) [Example 3u104]: the DC50 was 0.9 nM.
Same read-out and setting: for `CNc1ccn(-c2ccnc3c2cc([C@H](C)N2CC=C(c4c(C)cc(C(=O)N5CCC(CN6CCN(Cc7cc8c(cc7F)n([C@@H]7CCC(=O)NC7=O)c(=O)n8C7CC7)CC6)CC5)cc4F)CC2)n3C)c(=O)c1` (single isomer, unassigned) [Example 3u105] the value was 1.4 nM; for `Cc1cc(C(=O)N2CCC(CN3CCN(Cc4ccc5c(c4)n(C4CC4)c(=O)n5[C@H]4CCC(=O)NC4=O)CC3)CC2)cc(F)c1C1=CCN([C@@H](C)c2cc3c(-n4ccc5c(c4=O)CCN5)ccnc3n2C)CC1` (single isomer, unassigned) [Example 3u142], 2.4 nM; for `CNc1ccn(-c2ccnc3c2cc([C@H](C)N2CC=C(c4c(C)cc(C(=O)N5CCC(CN6CCN(Cc7ccc8c(c7)C7(CC7)C(=O)N8C7CCC(=O)NC7=O)C[C@@H]6C)CC5)cc4F)CC2)n3C)c(=O)c1F` (stereo partly drawn) [Example 3u114, 3-(5′-(((S)-4-((1-(3-fluoro-4-(1-((S)-1-(4-(3-fluoro-4-(methylamino)-2-oxopyridin-1 (2H)-yl)-1-methyl-1H-pyrrolo[2,3-b]pyridin-2-yl)ethyl)-1,2,3,6-tetrahydropyridin-4-yl)-5-methyl-benzoyl)piperidin-4-yl)methyl)-3-methylpiperazin-1-yl)methyl)-2′-oxospiro[cyclopropane-1,3′-indolin]-1′-yl)piperidine-2,6-dione], 9.9 nM.
The same measure, in the same setting: for `CNc1ccn(-c2ccnc3c2cc([C@H](C)N2CC=C(c4c(C)cc(C(=O)N5CCC(CN6CCN(Cc7cc8c(cc7F)n(C7CCC(=O)NC7=O)c(=O)n8C7CC7)CC6)CC5)cc4F)CC2)n3C)c(=O)c1` (stereo partly drawn) [Example 3u103, 3-(3-cyclopropyl-6-fluoro-5-((4-((1-(3-fluoro-5-methyl-4-(1-((S)-1-(1-methyl-4-(4-(methylamino)-2-oxopyridin-1 (2H)-yl)-1H-pyrrolo[2,3-b]pyridin-2-yl)ethyl)-1,2,3,6-tetrahydropyridin-4-yl)benzoyl)piperidin-4-yl)methyl)piperazin-1-yl)methyl)-2-oxo-2,3-dihydro-1H-benzo[d]imidazol-1-yl)piperidine-2,6-dione] the value was 2.5 nM; for `CNc1ccn(-c2ccnc3c2cc(CN2CCC(c4c(F)cc(C(=O)N5CCC(CN6CCN(C(=O)c7ccc8c(c7)n(C)c(=O)n8C7CCC(=O)NC7=O)CC6)CC5)cc4F)CC2)n3C)c(=O)c1` (stereo not drawn) [Example 3u264, 3-(5-(4-((1-(3,5-difluoro-4-(1-((1-methyl-4-(4-(methylamino)-2-oxopyridin-1 (2H)-yl)-1H-pyrrolo[2,3-b]pyridin-2-yl)methyl)piperidin-4-yl)benzoyl)piperidin-4-yl)methyl)piperazine-1-carbonyl)-3-methyl-2-oxo-2,3-dihydro-1H-benzo[d]imidazol-1-yl)piperidine-2,6-dione], 5.9 nM.
